From patent publication US20260000642A1 (Tay Therapeutics Limited, priority 2022, published 2026) come the findings set out here.

In data set [1] the target is T1, BRD4 BD2 (Homo sapiens, UniProt O60885).
T1 construct: HEK293 cells were transfected using NanoLuc-BRD4-BD1 or NanoLuc-BRD4-BD2 fusion vectors; host or cells: HEK293
The data set is described as follows: NanoBRET bromodomain assay, NanoLuc-BRD4-BD2 fusion vector in HEK293 cells. The format is cell-based. To be noted: for BRD4 BD2% Activity Remaining @ 10 uM: first and second (2) batches; for Fold selectivity: IC50 for BRD4 BD1 divided by IC50 for BRD4 BD2, qualitative if an IC50 is at the upper limit; for IC50: NanoBRET, HEK293 cells, top concentration 10 μM. The source says:
(§1) Bromodomain Assay Procedure
Background: Bioluminescence resonance energy transfer reports proximity on the nanometre scale.

Data set [2] is described as follows: Plasma stability assay, rat plasma. To be noted: 37° C., Method 2 (10 μM). The class given is in vitro ADME. Here is the method: Exemplary compounds of the disclosure are stable upon incubation in mouse plasma. Stability is expressed as a % remaining after 120 minutes. The experimental methods and results (Table 2) are provided hereinafter.
Plasma Stability Assay, Method 1
From stock solution of compound in 10 mM DMSO, a working solution of 1 mM is prepared by diluting the compound in DMSO. To 398 μL of plasma pre-warmed at 37° C. for 15 minutes), 2 μL of working solution of compound is added, resulting in a final concentration of 5 μM (0.5% DMSO) for the compound. The sample is then incubated at 37° C. Aliquot is withdrawn at specified time-points (0, 15, 30, 60 and 120 mins). The reaction is stopped by addition of 450 μL cold acetonitrile containing internal standard (IS). […] Aliquots of the supernatant is analysed using LC-MS/MS. The percent remaining of the compound at each time point is calculated with respect to the control sample (0 min time-point).
Plasma Stability Assay, Method 2
A working solution of compound (500 μM) is prepared in DMSO (100%). To 735 μL of plasma, 15 μL of working solution of compound is added—resulting in a final concentration of 10 μM (2% DMSO) for the compound. The sample is then incubated at 37° C. Aliquot is withdrawn at time-points—0, 15, 30, 60, 90 and 120 mins. The reaction is stopped by using chilled acetonitrile containing internal standard (IS). The samples are centrifuged and the supernatants analyzed using LC-MS/MS. The percent remaining of the compound at each time point is calculated with respect to the control sample (0 min time-point).

A short description of data set [3]: Sprague-Dawley rat pharmacokinetics (IV and PO). The class given is in vivo. To be noted: male Sprague-Dawley rats, cassette mode, Method 1; for IV T1/2: IV 1 mg/kg; for PO F (%) / bioavailability: PO 5 mg/kg (IV 1 mg/kg); for bioavailability: rat, plasma, read-out: PO F (%). From the text:
BET protein inhibitors with a long half-life and good oral bioavailability in in vivo DMPK parameters are promising oral drug candidates. Some of the exemplary compounds of the current disclosure have a long half-life and good oral bioavailability in in vivo DMPK parameters in the Sprague-Dawley rat following intravenous (IV) and oral (PO) dosing. The experimental methods and results (Table 5) are provided hereinafter.
Sprague-Dawley Rat Pharmacokinetics, Method 1
Compounds were formulated in 5% DMSO, 40% PEG-400, 55% Milli-Q water at a concentration of 0.2 mg/mL for IV and at 0.5 mg/mL for PO. Two male Sprague-Dawley rats per arm were dosed with up to 5 compounds in cassette mode, which each compound being dosed at 1 mg/kg IV and 5 mg/kg PO. Blood was sampled at various timepoints and plasma isolated. 50 μL of plasma with 5 μL of blank Sprague-Dawley rat plasma were added to 200 μL of acetonitrile containing IS mixture. The samples were vortexed for 30 s. After centrifugation at 4 degrees Celsius, 3900 rpm for 15 min, the supernatant was diluted 3 times with water. 20 μL of diluted supernatant was injected into the LC/MS/MS system for quantitative analysis and concentration of analyte determined by comparison with matrix matched standard curve. WinNonlin (Phoenix™, version 8.3) or other similar software may be used for pharmacokinetic calculations.

Data set [4] concerns the target T2, BRD4 BD1 (Homo sapiens, UniProt O60885).
T2 construct: HEK293 cells were transfected using NanoLuc-BRD4-BD1 or NanoLuc-BRD4-BD2 fusion vectors; host or cells: HEK293
Description: NanoBRET bromodomain assay, NanoLuc-BRD4-BD1 fusion vector in HEK293 cells. The class given is cell-based. To be noted: top concentration 10 μM.
Text: as §1

Bounds are passed on as bounds.

Usually IC50 stands for the point on the concentration scale where inhibition reaches its midpoint.

For the compound `CCNC(=O)c1cc(OC(C)c2ccccn2)c(C(=O)NC)[nH]1` (racemic) [Example 96, N^5-ethyl-N^2-methyl-3-(1-(pyridin-2-yl)ethoxy)-1H-pyrrole-2,5-dicarboxamide], in data set [1] (listed as 96 (2)), the “BRD4 BD2% Activity Remaining @ 10 uM” value turned out to be 64%. In data set [1] (listed as 96(2)*), the Fold selectivity entry was “— (Fold ≥0 and ≤2)”.

The compound `CNC(=O)c1[nH]c(C(=O)N[C@@H]2CC[C@@H](O)C2)cc1O[C@@H](C)c1ccccc1` (racemic) [Example 116, N^5-(trans-3-hydroxycyclopentyl)-N^2-methyl-3-((S)-1-phenylethoxy)-1H-pyrrole-2,5-dicarboxamide] showed an IC50 in data set [1] of 0.05 to 0.2 µM.

In the case of `CNC(=O)c1[nH]c(C(=O)NC2CCC2)cc1OC(C)c1ccc(Cl)cc1` (single isomer, unassigned) [Example 27, 3-(1-(4-chlorophenyl)ethoxy)-N^5-cyclobutyl-N^2-methyl-1H-pyrrole-2,5-dicarboxamide], the “Plasma Stability (% remaining at 120 minutes) Rat” value in data set [2] came out at 47%. For the same compound, in data set [3], the “IV T1/2” value was 24 min and the “PO F (%)” value was 47%.

`CNC(=O)c1[nH]c(C(=O)NC2CCC2)cc1OC(C)c1ccc(Cl)cc1` (single isomer, unassigned) [Example 28, 3-(1-(4-chlorophenyl)ethoxy)-N^5-cyclobutyl-N^2-methyl-1H-pyrrole-2,5-dicarboxamide] yielded an IC50 in data set [4] not below 10 µM.

For `CNC(=O)c1[nH]c(C(=O)NC2CCC2)cc1OC(C)c1ccc(Cl)cn1` (single isomer, unassigned) [Example 33, 3-(1-(5-chloropyridin-2-yl)ethoxy)-N^5-cyclobutyl-N^2-methyl-1H-pyrrole-2,5-dicarboxamide], in data set [2], the “Plasma Stability (% remaining at 120 minutes) Rat” value was found to be 85%.

For the compound `CNC(=O)c1[nH]c(C(=O)NC2CCC2)cc1OC(C)c1ccc(Cl)cc1F` (single isomer, unassigned) [Example 35], the “Plasma Stability (% remaining at 120 minutes) Rat” value in data set [2] worked out at 67%. Besides, in data set [3], the “IV T1/2” value was 30 min and the “PO F (%)” value came out at 65%.

Take `CNC(=O)c1[nH]c(C(=O)NC2CCC2)cc1OC(C)c1ccccc1F` (single isomer, unassigned) [Example 43, N^5-cyclobutyl-3-(1-(2-fluorophenyl)ethoxy)-N^2-methyl-1H-pyrrole-2,5-dicarboxamide]: the “Plasma Stability (% remaining at 120 minutes) Rat” value in data set [2] was determined as 20%. Also, in data set [3], the “IV T1/2” value amounted to 30 min and the “PO F (%)” value is recorded as 58%.

Consider `CCNC(=O)c1cc(OC(C)c2ccc(Br)cc2)c(C(=O)NC)[nH]1` (single isomer, unassigned) [Example 49, 3-(1-(4-bromophenyl)ethoxy)-N^5-ethyl-N^2-methyl-1H-pyrrole-2,5-dicarboxamide], for which, in data set [2], the “Plasma Stability (% remaining at 120 minutes) Rat” value was 90%.

`CCNC(=O)c1cc(OC(C)c2ccc(I)cc2)c(C(=O)NC)[nH]1` (single isomer, unassigned) [Example 51, N^5-ethyl-3-(1-(4-iodophenyl)ethoxy)-N^2-methyl-1H-pyrrole-2,5-dicarboxamide]: in data set [2], the “Plasma Stability (% remaining at 120 minutes) Rat” value is recorded as 93%.

Turning to `CCNC(=O)c1cc(OC(C)c2c(C)cccc2C)c(C(=O)NC)[nH]1` (single isomer, unassigned) [Example 64, 3-(1-(2,6-dimethylphenyl)ethoxy)-N^5-ethyl-N^2-methyl-1H-pyrrole-2,5-dicarboxamide], the IC50 in data set [4] is not below 10 µM.

`C#Cc1ccc(C(C)Oc2cc(C(=O)NCC)[nH]c2C(=O)NC)cc1` (single isomer, unassigned) [Example 70, N^5-ethyl-3-(1-(4-ethynylphenyl)ethoxy)-N^2-methyl-1H-pyrrole-2,5-dicarboxamide]: the “Plasma Stability (% remaining at 120 minutes) Rat” value in data set [2] is listed as 92%. Moreover, the bioavailability in data set [3] is 44%.

`CNC(=O)c1[nH]c(C(=O)N[C@H]2CC[C@H](O)CC2)cc1O[C@@H](C)c1ccnnc1` (single isomer, unassigned) [Example 92, N^5-(4-hydroxycyclohexyl)-N^2-methyl-3-(1-(pyridazin-4-yl)ethoxy)-1H-pyrrole-2,5-dicarboxamide] came in with an IC50 in data set [4] not below 10 µM.

As for `CNC(=O)c1[nH]c(C(=O)NC2CCC2)cc1OC(C)c1ccccc1` (single isomer, unassigned) [Example 102, N^5-cyclobutyl-N^2-methyl-3-(1-phenylethoxy)-1H-pyrrole-2,5-dicarboxamide], the bioavailability in data set [3] amounted to 13%.

As to `CNC(=O)c1[nH]c(-c2ncc(C)[nH]2)cc1O[C@H](C)c1ccccc1` [Example 24, (R)—N-methyl-5-(5-methyl-1H-imidazol-2-yl)-3-(1-phenylethoxy)-1H-pyrrole-2-carboxamide], in data set [1] (listed as 24 (2)), the “BRD4 BD2% Activity Remaining @ 10 uM” value was 78%. Moreover, the Fold selectivity result in data set [1] was “X (Fold >2 and ≤50)”; in data set [1] (listed as 24 (2)*), “— (Fold ≥0 and ≤2)”.

On to `CCNC(=O)c1cc(OC(c2ccccc2)c2ccccc2)c(C(=O)NC)[nH]1` [Example 53, 3-(benzhydryloxy)-N^5-ethyl-N^2-methyl-1H-pyrrole-2,5-dicarboxamide], for which, in data set [2], the “Plasma Stability (% remaining at 120 minutes) Rat” value is listed as 91%.

In the case of `CNC(=O)c1[nH]c(C(=O)NCC(F)(F)F)cc1O[C@@H](C)c1ccccc1` [Example 54], in data set [2], the “Plasma Stability (% remaining at 120 minutes) Rat” value is on record as 93%.

For `CNC(=O)c1[nH]c(C(=O)NC2CC2)cc1O[C@@H](C)c1ccccc1F` [Example 59, (S)—N^5-cyclopropyl-3-(1-(2-fluorophenyl)ethoxy)-N^2-methyl-1H-pyrrole-2,5-dicarboxamide], the “Plasma Stability (% remaining at 120 minutes) Rat” value in data set [2] is 50%. Also, in data set [3], the “IV T1/2” value was determined as 66 min and the “PO F (%)” value is recorded as 70%.

Turning to `CNC(=O)c1[nH]c(C(=O)NC(C)C)cc1O[C@@H](C)c1ccc(Cl)cc1` [Example 61, (S)-3-(1-(4-chlorophenyl)ethoxy)-N^5-isopropyl-N^2-methyl-1H-pyrrole-2,5-dicarboxamide], the “Plasma Stability (% remaining at 120 minutes) Rat” value in data set [2] amounted to 81%.

As to `CNC(=O)c1[nH]c(C(=O)NC2CC2)cc1O[C@@H](C)c1ccc(Cl)cc1` [Example 62, (S)-3-(1-(4-chlorophenyl)ethoxy)-N^5-cyclopropyl-N^2-methyl-1H-pyrrole-2,5-dicarboxamide], in data set [2], the “Plasma Stability (% remaining at 120 minutes) Rat” value is on record as 82%. Moreover, the bioavailability in data set [3] came to 8%.

On to `CNC(=O)c1[nH]c(-c2ncc(C)[nH]2)cc1O[C@@H](C)c1ccccc1F` [Example 68, (S)-3-(1-(2-fluorophenyl)ethoxy)-N-methyl-5-(5-methyl-1H-imidazol-2-yl)-1H-pyrrole-2-carboxamide], for which the “Plasma Stability (% remaining at 120 minutes) Rat” value in data set [2] stood at 75%.

For the compound `CNC(=O)c1[nH]c(-c2ncc(C)[nH]2)cc1O[C@@H](C)c1ccc(Cl)cc1` [Example 69, (S)-3-(1-(4-chlorophenyl)ethoxy)-N-methyl-5-(5-methyl-1H-imidazol-2-yl)-1H-pyrrole-2-carboxamide], the “Plasma Stability (% remaining at 120 minutes) Rat” value in data set [2] is 83%.

As for `CCNC(=O)c1[nH]c(C(=O)NC)c(O[C@@H](C)c2ccccc2F)c1Br` [Example 72, (S)-3-bromo-N^2-ethyl-4-(1-(2-fluorophenyl)ethoxy)-N^5-methyl-1H-pyrrole-2,5-dicarboxamide], the “Plasma Stability (% remaining at 120 minutes) Rat” value in data set [2] is 9%.

For the compound `CCNC(=O)c1[nH]c(C(=O)NC)c(O[C@@H](C)c2ccccc2F)c1C` [Example 74], in data set [4], the IC50 is not below 10 µM. In data set [1], the Fold selectivity result is “X (Fold >2 and ≤50)”; the IC50 is 1 to 10 µM.
